For data set [1] the following is noted: cited from earlier work.
Data set [2] is described as follows: Maximum lopinavir concentration in suspension after thermal treatment (LC-MS/MS). The data set is classed as physicochemical. Conditions: after thermal treatment (melt-quench), normalized to lopinavir content. The method, then: Lopinavir in suspension was measured in μg/mL.

For `CC(C)c1nc(CN(C)C(=O)N[C@H](C(=O)N[C@@H](Cc2ccccc2)C[C@H](O)[C@H](Cc2ccccc2)NC(=O)OCc2cncs2)C(C)C)cs1` [Ritonavir, ritonavir], in data set [1], the Log D (commonly the decadic logarithm of the distribution of all forms, ionised or not, between an organic phase and buffer at a given pH) is 5.7.

Take `Nc1ccn([C@@H]2CS[C@H](CO)O2)c(=O)n1` [Lamivudine, lamivudine]: the “Log D” value in data set [1] is listed as −1.1.

With `Cc1cccc(C)c1OCC(=O)N[C@@H](Cc1ccccc1)[C@@H](O)C[C@H](Cc1ccccc1)NC(=O)[C@H](C(C)C)N1CCCNC1=O` [Lopinavir, lopinavir], in data set [1], the “Log D” value is given as 4.6.

As for `Cc1cccc(C)c1OCC(=O)N[C@@H](Cc1ccccc1)[C@@H](O)C[C@H](Cc1ccccc1)NC(=O)[C@H](C(C)C)N1CCCNC1=O` [Lopinavir (amorphous), lopinavir], in data set [2], the “Maximum drug concentration in suspension” value was 322.00 µg/mL.

These data come from patent US20190328667A1, “DRUG-POLYMER PARTICLES WITH SUSTAINED RELEASE PROPERTIES” (University of Washington, priority 2016, published 2019).
